Measurements taken from patent publication US9181258B2, “Substituted 3,4-dihydropyrrolo[1,2-a]pyrazin-1(2H)-ones as protein kinase inhibitors” (NERVIANO MEDICAL SCIENCES S.R.L., priority 2011, dated 2015).
Counter-ions that a name gives are not always drawn.

Assays:
human PIM1 = human PIM1 (Homo sapiens (Human), UniProt P11309); assay: Biochemical assay for inhibitors of PIM1 kinase activity (trans-phosphorylation, Dowex technique); conditions: ATP 200 μM, Aktide 25 μM, enzyme 1 nM; read-out: PIM-1 IC50
Experimental: Biochemical Assay for Inhibitors of PIM1 Kinase Activity
The inhibitory activity of putative kinase inhibitors and the potency of selected compounds were determined using a trans-phosphorylation assay.
Specific peptide or protein substrates were trans-phosphorylated by their specific ser-thr or tyr kinase in the presence of ATP traced with ^33P-γ-ATP, and in the presence of their own optimal buffer and cofactors.
At the end of the phosphorylation reaction, more than 98% unlabeled ATP and radioactive ATP were captured by an excess of the ion exchange dowex resin; the resin then settled down to the bottom of the reaction plate by gravity. Supernatant was subsequently withdrawn and transferred into a counting plate, then evaluated by β-counting.
Reagents/Assay Conditions i. Dowex Resin Preparation
500 g of wet resin (SIGMA, custom prepared resin DOWEX 1×8 200-400 mesh, 2.5 Kg) were weighed out and diluted to 2 L in 150 mM sodium formate, pH 3.00.
The resin was allowed to settle down (some hours) and then the supernatant was discarded.
After three washes as above over a couple of days, the resin was allowed to settle and two volumes (wrt the resin volume) of 150 mM sodium formate buffer were added.
The pH was then measured and should have been around 3.00.
The washed resin was stable for more than one week; the stock resin was kept at 4° C. before use.
The buffer for PIM1 assay was composed of HEPES 50 mM, at pH 7.5, with 10 mM MgCl2, 1 mM DTT, 3 μM NaVO3, and 0.2 mg/mL BSA.
Full-length human PIM1 was expressed and purified as described in Bullock A N, et al., J. Biol. Chem. 2005, 280, 41675-82.
1.7 μM PIM1 was incubated 1 h at 28° C. in the presence of 125 μM ATP.
ATP concentration: 200 μM; ^33P-γ-ATP: 6 nM; Enzyme concentration: 1 nM Substrate concentration Aktide (Chemical Abstract Service Registry Number 324029-01-8): 25 μM iv. Robotized Dowex Assay
The test mix consisted of:
1) 3× Enzyme mix (done in Kinase Buffer 3×), 5 μL/well
2) 3× substrate and ATP mix (done in ddH2O), together with ^33P-γ-ATP, 5 μL/well 3) 3× test compounds (diluted into ddH2O—3% DMSO)—5 μL/well See below for compound dilution and assay scheme […]
An automated station (Biomek FX, Beckman) was used for serial dilutions, producing 1:3 dilutions in 100% DMSO, from line A1 to A10, for all the compounds in the column.
Data were analyzed by an internally customized version of the “Assay Explorer” SW package, which provided sigmoidal fitting of the ten-dilution curves for IC50 determination in secondary assay/hit confirmation routines.

human PIM2 = human PIM2 (Homo sapiens (Human), UniProt Q9P1W9); assay: PIM2 kinase inhibition assay: Dowex technique; format: biochemical; conditions: ATP 4 μM, Aktide 5 μM, enzyme 1.5 nM; read-out: PIM-2 IC50
Experimental: Method for PIM2 Kinase Inhibition Assay: Dowex Technique
The buffer for PIM2 assay was composed of HEPES 50 mM, at pH 7.5, with 1 mM MgCl2, 1 mM DTT, 3 μM Na3VO4, and 0.2 mg/mL BSA.
Full-length human PIM2 was expressed and purified as described in Fedorov O, et al., PNAS 2007 104, 51, 20523-28. ii. Assay Conditions (Final Concentrations)
Enzyme concentration=1.5 nM; ATP=4 μM; ^33P-γ-ATP=1 nM
Aktide substrate (Chemical Abstract Service Registry Number 324029-01-8)=5 μM iii. Robotized Dowex Assay
See above: same procedure as described for PIM1.

BaF3-PIM1 cells = assay: In vitro cell proliferation assay (CellTiter-Glo), BaF3-PIM1; format: cell-based; conditions: 72 hours
Experimental: (§1) In Vitro Cell Proliferation Assay
(§2) BaF3-PIM1 and MV-4-11 cells were seeded at 125 cells/well and 1250 cells/well respectively in a 384-well white plates in complete medium and treated with compounds dissolved in 0.1% DMSO, 24 h after seeding.
(§3) The cells were incubated at 37° C. and 5% CO2 and after 72 hours the plates were processed using CellTiter-Glo assay (Promega) following the manufacturer's instruction.
(§4) CellTiter-Glo was a homogenous method based on the quantification of the ATP present, an indicator of metabolitically active cells. ATP was quantified using a system based on luciferase and D-luciferin resulting into light generation. The luminescent signal was proportional to the number of cells present in culture.
(§5) Briefly 25 μl/well reagent solution were added to each wells and after 5 minutes shacking microplates were red by Envision (PerkinElmer) luminometer. The luminescent signal was proportional to the number of cells present in culture.
(§6) Inhibitory activity was evaluated comparing treated versus control data using Assay Explorer (MDL) program. IC50 was calculated using sigmoidal interpolation curve.

MV-4-11 cells = assay: In vitro cell proliferation assay (CellTiter-Glo), MV-4-11; format: cell-based; conditions: Homo sapiens, MV4-11, 72 hours
Experimental: as §1
MV-4-11 (biphenotypic B myelomonocytic leukemia) cell line was obtained from ATCC.
Media for MV-4-11 cell line contained RPMI 1640 or EMEM plus 2 mM Glutamine and 10% Fetal bovine serum.
as §2, §3, §4, §5, §6

Chain of human PIM1 (P11309 whole entry): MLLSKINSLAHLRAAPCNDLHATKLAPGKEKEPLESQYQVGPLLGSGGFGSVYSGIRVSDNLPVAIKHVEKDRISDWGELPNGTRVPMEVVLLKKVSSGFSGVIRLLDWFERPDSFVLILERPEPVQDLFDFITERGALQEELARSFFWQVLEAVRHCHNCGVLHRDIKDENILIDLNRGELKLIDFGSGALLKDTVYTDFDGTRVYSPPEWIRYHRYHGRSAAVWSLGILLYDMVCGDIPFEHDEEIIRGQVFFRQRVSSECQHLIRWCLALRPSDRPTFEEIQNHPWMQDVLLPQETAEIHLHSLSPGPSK
Chain of human PIM2 (Q9P1W9 whole entry): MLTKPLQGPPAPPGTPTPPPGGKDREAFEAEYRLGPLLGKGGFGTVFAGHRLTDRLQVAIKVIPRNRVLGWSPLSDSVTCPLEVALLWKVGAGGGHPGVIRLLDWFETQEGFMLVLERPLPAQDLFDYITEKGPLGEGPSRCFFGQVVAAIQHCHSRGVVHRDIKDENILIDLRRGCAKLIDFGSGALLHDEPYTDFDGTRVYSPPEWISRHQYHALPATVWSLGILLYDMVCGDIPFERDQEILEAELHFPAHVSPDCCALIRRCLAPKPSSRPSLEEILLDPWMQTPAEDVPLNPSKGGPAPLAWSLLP

Structure (SMILES)	IC50 (human PIM1) [nM]	IC50 (human PIM2) [nM]	IC50 (BaF3-PIM1 cells) [nM]	IC50 (MV-4-11 cells) [nM]
CN(C)Cc1ccc(-c2c(-c3cccc(OC(F)(F)F)c3)cc3n2C(CCO)CNC3=O)cc1 (stereo not shown) [Compound 83, 6-{4-[(dimethylamino)methyl]phenyl}-4-(2-hydroxyethyl)-7-[3-(trifluoromethoxy)phenyl]-3,4-dihydropyrrolo[1,2-a]pyrazin-1(2H)-one trifluoroacetate]	4	38	329	2890
NCC[C@H]1CNC(=O)c2cc(-c3cccc(OC(F)(F)F)c3)c(-c3ccsc3)n21 [Compound 85, (4S)-4-(2-aminoethyl)-6-(thiophen-3-yl)-7-[3-(trifluoromethoxy)phenyl]-3,4-dihydropyrrolo[1,2-a]pyrazin-1(2H)-one hydrochloride]	12	69	85	3660
NCC[C@H]1CNC(=O)c2cc(-c3cccc(OC(F)(F)F)c3)c(-c3ccccc3)n21 [Compound 87, (4S)-4-(2-aminoethyl)-6-phenyl-7-[3-(trifluoromethoxy)phenyl]-3,4-dihydropyrrolo[1,2-a]pyrazin-1(2H)-one]	9	38	202	3610
Cc1cccc(-c2c(-c3cccc(OC(F)(F)F)c3)cc3n2[C@@H](CCN)CNC3=O)c1 [Compound 92, (4S)-4-(2-aminoethyl)-6-(3-methylphenyl)-7-[3-(trifluoromethoxy)phenyl]-3,4-dihydropyrrolo[1,2-a]pyrazin-1(2H)-one hydrochloride]	5	15	147	2200
NCC[C@H]1CNC(=O)c2cc(-c3cccc(OC(F)(F)F)c3)c(-c3ccc(F)cc3)n21 [Compound 94, (4S)-4-(2-aminoethyl)-6-(4-fluorophenyl)-7-[3-(trifluoromethoxy)phenyl]-3,4-dihydropyrrolo[1,2-a]pyrazin-1(2H)-one hydrochloride]	20	27	428	5420
CC(=O)c1ccc(-c2c(-c3cccc(OC(F)(F)F)c3)cc3n2[C@@H](CCN)CNC3=O)cc1 [Compound 95, (4S)-6-(4-acetylphenyl)-4-(2-aminoethyl)-7-[3-(trifluoromethoxy)phenyl]-3,4-dihydropyrrolo[1,2-a]pyrazin-1(2H)-one hydrochloride]	6	17	573	1260
NCC[C@H]1CNC(=O)c2cc(-c3cccc(OC(F)(F)F)c3)c(-c3ccc(C=O)cc3)n21 [Compound 97, 4-{(4S)-4-(2-aminoethyl)-1-oxo-7-[3-(trifluoromethoxy)phenyl]-1,2,3,4-tetrahydropyrrolo[1,2-a]pyrazin-6-yl}benzaldehyde hydrochloride]	7	22	1500	2100
NCC[C@H]1CNC(=O)c2cc(-c3cccc(OC(F)(F)F)c3)c(-c3ccc(CN4CCOCC4)cc3)n21 [Compound 99, (4S)-4-(2-aminoethyl)-6-[4-(morpholin-4-ylmethyl)phenyl]-7-[3-(trifluoromethoxy)phenyl]-3,4-dihydropyrrolo[1,2-a]pyrazin-1(2H)-one hydrochloride]	2	7	410	672
CN1CCN(Cc2ccc(-c3c(-c4cccc(OC(F)(F)F)c4)cc4n3[C@@H](CCN)CNC4=O)cc2)CC1 [Compound 100, (4S)-4-(2-aminoethyl)-6-{4-[(4-methylpiperazin-1-yl)methyl]phenyl}-7-[3-(trifluoromethoxy)phenyl]-3,4-dihydropyrrolo[1,2-a]pyrazin-1(2H)-one hydrochloride]	1	2	3100	616
CN(C)Cc1ccc(-c2c(-c3cccc(OC(F)(F)F)c3)cc3n2[C@@H](CCN)CNC3=O)cc1 [Compound 101, (4S)-4-(2-aminoethyl)-6-{4-[(dimethylamino)methyl]phenyl}-7-[3-(trifluoromethoxy)phenyl]-3,4-dihydropyrrolo[1,2-a]pyrazin-1(2H)-one hydrochloride]	1	9	296	939
NCCC[C@H]1CNC(=O)c2cc(-c3cccc(OC(F)(F)F)c3)c(-c3ccccc3)n21 [Compound 102, (4S)-4-(3-aminopropyl)-6-phenyl-7-[3-(trifluoromethoxy)phenyl]-3,4-dihydropyrrolo[1,2-a]pyrazin-1(2H)-one hydrochloride]	19	156	836	1640
NCCC[C@H]1CNC(=O)c2cc(-c3cccc(OC(F)(F)F)c3)c(-c3ccsc3)n21 [Compound 103, (4S)-4-(3-aminopropyl)-6-(thiophen-3-yl)-7-[3-(trifluoromethoxy)phenyl]-3,4-dihydropyrrolo[1,2-a]pyrazin-1(2H)-one hydrochloride]	11	153	1180	2930
CC(=O)c1ccc(-c2c(-c3cccc(OC(F)(F)F)c3)cc3n2[C@@H](CCCN)CNC3=O)cc1 [Compound 110, (4S)-6-(4-acetylphenyl)-4-(3-aminopropyl)-7-[3-(trifluoromethoxy)phenyl]-3,4-dihydropyrrolo[1,2-a]pyrazin-1(2H)-one hydrochloride]	22	129	3900	3200
NCC[C@H]1CNC(=O)c2cc(-c3cccc(OC(F)(F)F)c3)c(-c3ccc4c(c3)OCO4)n21 [Compound 112, (4S)-4-(2-aminoethyl)-6-(1,3-benzodioxol-5-yl)-7-[3-(trifluoromethoxy)phenyl]-3,4-dihydropyrrolo[1,2-a]pyrazin-1(2H)-one hydrochloride]	6	16	71	1770
CN(C)c1ccc(-c2c(-c3cccc(OC(F)(F)F)c3)cc3n2[C@@H](CCN)CNC3=O)cc1 [Compound 115, (4S)-4-(2-aminoethyl)-6-[4-(dimethylamino)phenyl]-7-[3-(trifluoromethoxy)phenyl]-3,4-dihydropyrrolo[1,2-a]pyrazin-1(2H)-one hydrochloride]	3	46	76	812
COc1ccc(-c2c(-c3cccc(OC(F)(F)F)c3)cc3n2[C@@H](CCN)CNC3=O)cc1 [Compound 116, (4S)-4-(2-aminoethyl)-6-(4-methoxyphenyl)-7-[3-(trifluoromethoxy)phenyl]-3,4-dihydropyrrolo[1,2-a]pyrazin-1(2H)-one hydrochloride]	3	22	142	861
